Laboratory results taken from patent US20240090503A1, “FUNGICIDAL OXADIAZOLES AND THEIR MIXTURES” (FMC CORPORATION, priority 2020, published 2024).
Read-outs that look alike come from different tables or passages of the source. One block for each compound: values may come before it.

Assays:
[1] = system: Zymoseptoria tritici (the causal agent of wheat leaf blotch); assay: Test B: preventive spray on wheat seedlings, wheat leaf blotch, visual disease rating; format: in vivo; conditions: Zymoseptoria tritici, 456 h, wheat seedlings; for pest or weed control at 250 µg/mL: test suspension 250 ppm; for pest or weed control at 250 ppm: 250 ppm test suspension, 100 = 100% disease control
Procedure, shortened: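 This is a preventive test: spray application preceded Zymoseptoria tritici spore inoculation by one day. Test suspensions were in acetone/water with 250 ppm PEG400 surfactant, at the listed ppm rate. After 48 h saturated humidity at 24° C and 17 days at 20° C, visual ratings scored control from 0 to 100%.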

[2] = system: Puccinia recondita f. sp. tritici (the causal agent of wheat leaf rust); assay: Test C: preventive spray on wheat seedlings, wheat leaf rust, visual disease rating; format: in vivo; conditions: Puccinia recondita, 168 h, wheat seedlings; for pest or weed control at 10 µg/mL: test suspension 10 ppm, read-out: Test C disease control rating; for pest or weed control at 10 ppm: 10 ppm test suspension
Procedure, shortened: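 Wheat seedlings sprayed to run-off with compound in acetone/water (50/50) with 250 ppm PEG400, then inoculated with spores the following day. After 24 h saturated humidity at 20° C. and 6 days in growth chamber at 20° C., disease rated visually as % control relative to untreated controls.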

[3] = system: Phakopsora pachyrhizi (the causal agent of Asian soybean rust); assay: Test A: preventive spray on soybean seedlings, Asian soybean rust, visual disease rating; format: in vivo; conditions: Phakopsora pachyrhizi, 216 h, soybean seedlings, 100 = 100% disease control, 0 = no control; for pest or weed control at 10 µg/mL: test suspension 10 ppm, read-out: Test A disease control rating; for pest or weed control at 10 ppm: 10 ppm test suspension
Procedure, shortened: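 Preventive test: soybean seedlings received a run-off spray of compound suspended at the set ppm in 50/50 acetone/water plus 250 ppm PEG400, and one day later a P. pachyrhizi spore inoculum. Visual scoring (0 none to 100 full disease control) followed 24 h saturated incubation and 8 days' growth chamber, both at 22° C.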

[4] = system: Phakopsora pachyrhizi (the causal agent of Asian soybean rust); assay: Test E: compounds alone and mixtures sprayed on soybean seedlings, Asian soybean rust, observed and Colby-expected disease control; format: in vivo; conditions: Phakopsora pachyrhizi
Source text: The general protocol for preparing test compositions for TEST E was as follows: Compound 316, Compound 376, Compound 225, Compound 229, Compound 257, Compound 394, Compound 506, Compound 507, Compound 508, Compound 509, Compound 511, Compound 512, methyl N-[[5-[1-[2,6-difluoro-4-(1-methylethyl)phenyl]-1H-pyrazol-3-yl]-2-methylphenyl]methyl]carbamate (b54.11a), methyl N-[[5-[l-(4-cyclopropyl-2,6-difluorophenyl)-1H-pyrazol-3-yl]-2-methylphenyl]methyl]carbamate (b54.11d), ethyl 1-[[4-[[(1Z)-2-ethoxy-3,3,3-trifluoro-1-propen-1-yl]oxy]phenyl]methyl]-1H-pyrazole-4-carboxylate (b54.12a), ethyl 1-[[4-[[2-(trifluoromethyl)-1,3-dioxolan-2-yl]methoxy]phenyl]methyl]-1H-pyrazole-4-carboxylate (b54.13a), azoxystrobin, benzovindiflupyr, bixafen, chlorothalonil, cyproconazole, epoxiconazole, fenpropidin, fenpropimorph, fluindapyr, flutriafol, fluxapyroxad, inpyrfluxam, metominostrobin, picoxystrobin, prothioconazole, pydiflumetofen, pyraclostrobin, tebuconazole and trifloxystrobin were obtained as unformulated, technical-grade materials. Copper hydroxide and mancozeb was obtained as a formulated product marketed under the trademarks KOCIDE 3000 and MANZATE, respectively. Unformulated materials were first dissolved in acetone and then suspended at the desired concentration (in ppm) in acetone and purified water (50/50 mixture by volume) containing 250 ppm of the surfactant Trem® 014 (polyhydric alcohol esters). Formulated materials were dispersed in sufficient water to give the desired concentration, and neither organic solvent nor surfactant was added to the suspension. The resulting test mixtures were then used in TEST E. The tests were run on four individual plants and the results reported as the mean average of the four plants.
The presence of a synergistic effect between two active ingredients can be established with the aid of the Colby equation (see Colby, S. R. “Calculating Synergistic and Antagonistic Responses of Herbicide Combinations”, Weeds, (1967), 15, 20-22):
Using the method of Colby, the presence of a synergistic interaction between two active ingredients is established by first calculating the predicted activity, p, of the mixture based on activities of the two components applied alone. If p is lower than the experimentally established effect, synergism has occurred. In the equation above, A is the fungicidal activity in percentage control of one component applied alone at rate x. The B term is the fungicidal activity in percentage control of the second component applied at rate y. The equation estimates p, the expected fungicidal activity of the mixture of A at rate x with B at rate y if their effects are strictly additive and no interaction has occurred.
The test mixture was sprayed to the point of run-off on soybean seedlings. The following day the seedlings were inoculated with a spore suspension of Phakopsora pachyrhizi (the causal agent of Asian soybean rust) and incubated in a saturated atmosphere at 22° C. for 24 h and then moved to a growth chamber at 22° C. for 8 days, after which time visual disease ratings were made.
Results for Test E are given below in Tables A-1 through K-2. Each table corresponds to a set of evaluations performed together at the same time. In each table, a rating of 100 indicates 100% disease control and a rating of 0 indicates no disease control (relative to the controls). Columns labeled “Obsd” indicate the average of results observed from test run on four individual plants. Columns labeled “Exp” indicate the expected value for each treatment mixture using the Colby equation, as described above.

[5] = 100 = 100% disease control, 0 = no control

SMILES: CCOC(=O)c1cnn(COc2ccc(-c3noc(C(F)(F)F)n3)cc2)c1 [Compound 376, ethyl 1-[[4-[5-(trifluoromethyl)-1,2,4-oxadiazol-3-yl]phenoxy]methyl]-1H-pyrazole-4-carboxylate]
- pest or weed control at 250 µg/mL [1]: 49%
- pest or weed control at 10 µg/mL [2]: 68%
- pest or weed control at 10 µg/mL [3]: 100%
- pest or weed control at 0.753 ppm ([4]; Compound 376 alone, 0.753 ppm, read-out: Test E Obsd): 53%
- pest or weed control at 1.228 ppm ([4]; Compound 376 alone, 1.228 ppm, read-out: Test E Obsd): 78%
- pest or weed control at 0.753 ppm ([4]; Table A-2, Compound 376 0.753 ppm alone, read-out: Test E Obsd (disease control rating)): 70%
- pest or weed control at 1.228 ppm ([4]; Table A-2, Compound 376 1.228 ppm alone, read-out: Test E Obsd (disease control rating)): 66%
- pest or weed control at 0.753 ppm ([4]; Table B-2, Compound 376 0.753 ppm alone, read-out: Test E Obsd (disease control rating)): 15%
- pest or weed control at 1.228 ppm ([4]; Table B-2, Compound 376 1.228 ppm alone, read-out: Test E Obsd (disease control rating)): 21%
- pest or weed control at 0.753 ppm ([4]; Table C-2, Compound 376 0.753 ppm alone, read-out: Test E Obsd (disease control rating)): 54%
- pest or weed control at 1.228 ppm ([4]; Table C-2, Compound 376 1.228 ppm alone, read-out: Test E Obsd (disease control rating)): 71%
- pest or weed control at 0.753 ppm ([4]; Table D-2, Compound 376 0.753 ppm alone, read-out: Test E Obsd (disease control rating)): 67%
- pest or weed control at 1.228 ppm ([4]; Table D-2, Compound 376 1.228 ppm alone, read-out: Test E Obsd (disease control rating)): 68%
- pest or weed control at 0.753 ppm ([4]; Table E-2, Compound 376 0.753 ppm alone, read-out: Test E Obsd (disease control rating)): 81%
- pest or weed control at 1.228 ppm ([4]; Table E-2, Compound 376 1.228 ppm alone, read-out: Test E Obsd (disease control rating)): 67%
- pest or weed control at 0.753 ppm ([4]; Table F-2, Compound 376 0.753 ppm alone, read-out: Test E Obsd (disease control rating)): 68%
- pest or weed control at 1.228 ppm ([4]; Table F-2, Compound 376 1.228 ppm alone, read-out: Test E Obsd (disease control rating)): 77%
- pest or weed control at 0.753 ppm ([4]; Table G-2, Compound 376 0.753 ppm alone, read-out: Test E Obsd (disease control rating)): 52%
- pest or weed control at 1.228 ppm ([4]; Table G-2, Compound 376 1.228 ppm alone, read-out: Test E Obsd (disease control rating)): 37%
- pest or weed control at 0.753 ppm ([4]; Table H-2, Compound 376 0.753 ppm alone, read-out: Test E Obsd (disease control rating)): 62%
- pest or weed control at 1.228 ppm ([4]; Table H-2, Compound 376 1.228 ppm alone, read-out: Test E Obsd (disease control rating)): 81%

- melting point: 101 to 104 °C
SMILES: N#CCc1cc(Cc2ccc(-c3noc(C(F)(F)F)n3)cc2)on1 [Compound 510, 5-[[4-[5-(trifluoromethyl)-1,2,4-oxadiazol-3-yl]phenyl]methyl]-3-isoxazoleacetonitrile]
- pest or weed control at 10 ppm [2, 5]: 84%
- pest or weed control at 10 ppm [3]: 100%

- melting point: 83 to 92 °C
SMILES: O=C(NCC(F)F)c1csc(Cc2ccc(-c3noc(C(F)(F)F)n3)cc2)n1 [Compound 505, N-(2,2-difluoroethyl)-2-[[4-[5-(trifluoromethyl)-1,2,4-oxadiazol-3-yl]phenyl]methyl]-4-thiazolecarboxamide]
- pest or weed control at 250 ppm [1]: 100%
- pest or weed control at 10 ppm [2, 5]: 100%
- pest or weed control at 10 ppm [3]: 100%

SMILES: O=C(NCC(F)F)c1coc(Cc2ccc(-c3noc(C(F)(F)F)n3)cc2)n1 [Compound 225, N-(2,2-difluoroethyl)-2-[[4-[5-(trifluoromethyl)-1,2,4-oxadiazol-3-yl]phenyl]methyl]-4-oxazolecarboxamide]
- pest or weed control at 250 µg/mL [1]: 99%
- pest or weed control at 10 µg/mL [2]: 100%
- pest or weed control at 10 µg/mL [3]: 100%
- pest or weed control at 0.589 ppm ([4]; applied alone, 0.589 ppm, read-out: Test E Obsd): 68%

- melting point: 116 to 120 °C
SMILES: O=C(NCC(F)(F)F)c1noc(Cc2ccc(-c3noc(C(F)(F)F)n3)cc2)n1 [Compound 506, N-(2,2,2-trifluoroethyl)-5-[[4-[5-(trifluoromethyl)-1,2,4-oxadiazol-3-yl]phenyl]methyl]-1,2,4-oxadiazole-3-carboxamide]
- pest or weed control at 250 ppm [1]: 49%
- pest or weed control at 250 ppm ([2]; 250 ppm test suspension, 100 = 100% disease control, 0 = no control): 100%
- pest or weed control at 250 ppm ([3]; 250 ppm test suspension): 100%

- melting point: 125 to 126 °C
SMILES: O=C(NCCn1cccn1)c1coc(Cc2ccc(-c3noc(C(F)(F)F)n3)cc2)n1 [Compound 264, N-[2-(1H-pyrazol-1-yl)ethyl]-2-[[4-[5-(trifluoromethyl)-1,2,4-oxadiazol-3-yl]phenyl]methyl]-4-oxazolecarboxamide]
- pest or weed control at 250 µg/mL [1]: 99%
- pest or weed control at 10 µg/mL [2]: 99%
- pest or weed control at 10 µg/mL [3]: 100%

SMILES: COCCNC(=O)c1coc(Cc2ccc(-c3noc(C(F)(F)F)n3)cc2)n1 [Compound 257, N-(2-methoxyethyl)-2-[[4-[5-(trifluoromethyl)-1,2,4-oxadiazol-3-yl]phenyl]methyl]-4-oxazolecarboxamide]
- pest or weed control at 250 µg/mL [1]: 99%
- pest or weed control at 10 µg/mL [2]: 100%
- pest or weed control at 10 µg/mL [3]: 100%
- pest or weed control at 0.914 ppm ([4]; applied alone, 0.914 ppm, read-out: Test E Obsd): 27%

SMILES: N#CCCNC(=O)c1coc(Cc2ccc(-c3noc(C(F)(F)F)n3)cc2)n1 [Compound 229, N-(2-cyanoethyl)-2-[[4-[5-(trifluoromethyl)-1,2,4-oxadiazol-3-yl]phenyl]methyl]-4-oxazolecarboxamide]
- pest or weed control at 250 µg/mL [1]: 94%
- pest or weed control at 10 µg/mL [2]: 100%
- pest or weed control at 10 µg/mL [3]: 100%
- pest or weed control at 0.964 ppm ([4]; applied alone, 0.964 ppm, read-out: Test E Obsd): 59%
- pest or weed control at 1.915 ppm ([4]; applied alone, 1.915 ppm, read-out: Test E Obsd): 77%
